Results: ChEMBL document CHEMBL3885861, “Open TG-GATES”

Species: Rattus norvegicus
Assay: Open TG-GATES - Regimen: Single
Assay type: toxicity, organism-based, Sprague-Dawley
Design: regimen Single, gender Male, age 6 weeks
Conditions: in vivo, iv, route intravenous injection; for KIDNEY_L / KIDNEY_R / KIDNEY_TOTAL: tissue Kidney; for LIVER: tissue Liver
[1] = 0 mg/kg, 24 h, dose level Control
[2] = 0 mg/kg, 24 h, tissue Blood, dose level Control
[3] = 0 mg/kg, 24 h, tissue Plasma, dose level Control
[4] = 1 mg/kg, 3 h, dose level Middle
[5] = 1 mg/kg, 3 h, tissue Blood, dose level Middle
[6] = 1 mg/kg, 3 h, tissue Plasma, dose level Middle
[7] = 1 mg/kg, 6 h, dose level Middle
[8] = 1 mg/kg, 6 h, tissue Blood, dose level Middle
[9] = 1 mg/kg, 6 h, tissue Plasma, dose level Middle

Sequence CISPLATIN has a TERMINAL_BW [1] of 232.1 g, an APTT [2] of 22.3 s and a Bas [2] of 0%. It also gave an Eos [2] of 1%, a Fbg [2] of 282.6 mg/dL and a Ht [2] of 40.2%. It also gave a Lym [2] of 81.2%, an MCH [2] of 21.1 pg and an MCV [2] of 65 fL. It also gave a Mono [2] of 2.8%, a Plat [2] of 123 x10_4/uL and an RBC [2] of 617.6 x10_4/ul. For the same sequence, the Ret [2] was 6.3%, the WBC [2] was 84 x10_2/uL and the KIDNEY_L [1] was 1 g. For the same sequence, the KIDNEY_R [1] was 1.1 g, the KIDNEY_TOTAL [1] was 2.1 g and the ALP [3] was 1431.4 IU/L. The ALT [3] was 47.4 IU/L, the AST [3] was 74.8 IU/L and the BUN [3] was 17.2 mg/dL. It also gave a CRE [3] of 0.2 mg/dL, a DBIL [3] of 0 mg/dL and an IP [3] of 7.7 mg/dL. For the same sequence, the K [3] was 4.4 meq/L, the LDH [3] was 177.8 IU/L and the PL [3] was 150.4 mg/dL. The RALB [3] was 3 g/dL, the TBIL [3] was 0.014 mg/dL and the TC [3] was 80.2 mg/dL. The TG [3] was 98.4 mg/dL, the TP [3] was 5.6 g/dL and the gamma-GTP [3] was 1.6 IU/L. It also gave a TERMINAL_BW [4] of 215.5 g, an APTT [5] of 22.6 s and a Bas [5] of 0%. The Eos [5] was 1%, the Fbg [5] was 275.8 mg/dL and the Hb [5] was 12.7 g/dL. The Ht [5] was 38.9%, the Lym [5] was 75% and the MCH [5] was 21.1 pg. The MCHC [5] was 32.7%, the MCV [5] was 64.5 fL and the Mono [5] was 2.6%. The Plat [5] was 127.7 x10_4/uL, the RBC [5] was 602.2 x10_4/ul and the Ret [5] was 6.6%. For the same sequence, the WBC [5] was 89.5 x10_2/uL, the KIDNEY_L [4] was 1 g and the KIDNEY_R [4] was 1 g. The KIDNEY_TOTAL [4] was 2 g, the LIVER [4] was 10 g and the ALP [6] was 1623.4 IU/L. It also gave an ALT [6] of 38.8 IU/L, a BUN [6] of 13 mg/dL and a CRE [6] of 0.2 mg/dL. It also gave a DBIL [6] of 0 mg/dL, a GLC [6] of 175.4 mg/dL and an IP [6] of 8.9 mg/dL. It also gave a K [6] of 4.2 meq/L, an LDH [6] of 152.2 IU/L and a Na [6] of 139.6 meq/L. It also gave a PL [6] of 132.4 mg/dL, an RALB [6] of 2.8 g/dL and a TBIL [6] of 0.014 mg/dL. The TC [6] was 75 mg/dL, the TG [6] was 80.6 mg/dL and the TP [6] was 5.2 g/dL. For the same sequence, the gamma-GTP [6] was 1.4 IU/L, the TERMINAL_BW [7] was 216 g and the APTT [8] was 22.5 s. The Bas [8] was 0%, the Eos [8] was 1% and the Fbg [8] was 275 mg/dL. The Hb [8] was 13 g/dL, the Ht [8] was 39.9% and the Lym [8] was 77%. It also gave an MCHC [8] of 32.6%, an MCV [8] of 63.4 fL and a Mono [8] of 3%. It also gave a Neu [8] of 17.8%, a PT [8] of 15.4 s and a Plat [8] of 128.4 x10_4/uL. For the same sequence, the RBC [8] was 629.4 x10_4/ul, the Ret [8] was 6.1% and the WBC [8] was 106.4 x10_2/uL. The KIDNEY_L [7] was 1 g, the KIDNEY_R [7] was 1 g and the KIDNEY_TOTAL [7] was 2 g. The LIVER [7] was 9.4 g, the ALP [9] was 1530.2 IU/L and the ALT [9] was 42.8 IU/L. For the same sequence, the AST [9] was 75.8 IU/L, the CRE [9] was 0.1 mg/dL and the DBIL [9] was 0 mg/dL. The IP [9] was 9.6 mg/dL, the K [9] was 4.4 meq/L and the LDH [9] was 159.6 IU/L. For the same sequence, the Na [9] was 138.6 meq/L, the PL [9] was 135.6 mg/dL and the RALB [9] was 2.9 g/dL. For the same sequence, the TBIL [9] was 0 mg/dL, the TC [9] was 73.2 mg/dL and the TG [9] was 92.2 mg/dL. The TP [9] was 5.4 g/dL and the gamma-GTP [9] was 2 IU/L.
